Like-named read-outs stand apart in the source and are kept apart here. Where only a bound is given, the exact number is not on record here.

The target in test [1] is T1, HCV NS3/4A protease complex, BMS strain (UniProt P27958, species not given/STRAIN_BMS).
T1 construct: DNA encoding the recombinant HCV NS3/4A protease complex (amino acids 1027 to 1711) for these strains [H77 and J4L6S]; fused on or other part: For the H77 and J4L6S constructs, a three-lysine solubilising tail at the NS4A C-terminus and a Ni-NTA-purifiable tag from pET21b
T1 sequence (P27958 1027-1657, stated change not applied, one chain of several): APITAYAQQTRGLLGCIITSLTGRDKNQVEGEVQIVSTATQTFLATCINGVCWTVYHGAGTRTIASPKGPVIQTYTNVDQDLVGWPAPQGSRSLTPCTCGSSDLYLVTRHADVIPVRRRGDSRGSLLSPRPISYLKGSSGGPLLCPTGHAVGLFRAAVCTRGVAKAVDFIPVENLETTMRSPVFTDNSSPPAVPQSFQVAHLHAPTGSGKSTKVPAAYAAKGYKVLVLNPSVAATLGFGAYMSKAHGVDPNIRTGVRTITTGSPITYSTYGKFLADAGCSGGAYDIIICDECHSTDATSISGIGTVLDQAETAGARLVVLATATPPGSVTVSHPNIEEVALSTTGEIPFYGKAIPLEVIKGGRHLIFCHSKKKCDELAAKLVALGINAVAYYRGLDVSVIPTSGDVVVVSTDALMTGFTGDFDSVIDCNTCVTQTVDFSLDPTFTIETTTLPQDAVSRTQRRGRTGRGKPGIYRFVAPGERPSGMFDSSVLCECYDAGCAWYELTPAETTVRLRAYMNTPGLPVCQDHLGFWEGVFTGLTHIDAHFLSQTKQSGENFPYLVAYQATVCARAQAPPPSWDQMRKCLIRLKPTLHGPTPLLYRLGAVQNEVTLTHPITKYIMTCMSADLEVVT
In words: FRET peptide assay to monitor HCV NS3/4A proteolytic activity (BMS strain). It is filed as biochemical, Hepatitis C virus (genotype 1a). From the text: Generation of Recombinant HCV NS3/4A Protease Complex
HCV NS3 protease complexes, derived from the BMS strain, H77 strain or J4L6S strain, were generated, as described below. These purified recombinant proteins were generated for use in a homogeneous assay (see below) to provide an indication of how effective compounds of the present disclosure would be in inhibiting HCV NS3 proteolytic activity.
Serum from an HCV-infected patient was obtained from Dr. T. Wright, San Francisco Hospital. An engineered full-length cDNA (compliment deoxyribonucleic acid) template of the HCV genome (BMS strain) was constructed from DNA fragments obtained by reverse transcription-PCR (RT-PCR) of serum RNA (ribonucleic acid) and using primers selected on the basis of homology between other genotype 1a strains. From the determination of the entire genome sequence, a genotype 1a was assigned to the HCV isolate according to the classification of Simmonds et al. (See P Simmonds, K A Rose, S Graham, S W Chan, F McOmish, B C Dow, E A Follett, P L Yap and H Marsden, J. Clin. Microbiol., 31(6), 1493-1503 (1993)). […] The infectious clones, H77 (1a genotype) and J4L6S (1b genotype) were obtained from R. Purcell (NIH) and the sequences are published in Genbank (AAB67036, see Yanagi, M., Purcell, R. H., Emerson, S. U. and Bukh, J. Proc. Natl. Acad. Sci. U.S.A. 94(16), 8738-8743 (1997); AF054247, see Yanagi, M., St Claire, M., Shapiro, M., Emerson, S. U., Purcell, R. H. and Bukh, J, Virology 244 (1), 161-172. (1998)).
The H77 and J4L6S strains were used for production of recombinant NS3/4A protease complexes. DNA encoding the recombinant HCV NS3/4A protease complex (amino acids 1027 to 1711) for these strains were manipulated as described by P. Gallinari et al. (see Gallinari P, Paolini C, Brennan D, Nardi C, Steinkuhler C, De Francesco R. Biochemistry. 38(17):5620-32, (1999)). Briefly, a three-lysine solubilizing tail was added at the 3′-end of the NS4A coding region. The cysteine in the P1 position of the NS4A-NS4B cleavage site (amino acid 1711) was changed to a glycine to avoid the proteolytic cleavage of the lysine tag. Furthermore, a cysteine to serine mutation was introduced by PCR at amino acid position 1454 to prevent the autolytic cleavage in the NS3 helicase domain. The variant DNA fragment was cloned in the pET21b bacterial expression vector (Novagen) and the NS3/4A complex was expressed in Escherichia coli strain BL21 (DE3) (Invitrogen) following the protocol described by P. Gallinari et al. (see Gallinari P, Brennan D, Nardi C, Brunetti M, Tomei L, Steinkuhler C, De Francesco R., J. Virol. 72(8):6758-69 (1998)) with modifications. Briefly, the NS3/4A protease complex expression was induced with 0.5 millimolar (mM) Isopropyl β-D-1-thiogalactopyranoside (IPTG) for 22 hours (h) at 20° C. A typical fermentation (1 Liter (L)) yielded approximately 10 grams (g) of wet cell paste. The cells were resuspended in lysis buffer (10 mL/g) consisting of 25 mM N-(2-Hydroxyethyl)piperazine-N′-(2-Ethane Sulfonic acid) (HEPES), pH 7.5, 20% glycerol, 500 mM Sodium Chloride (NaCl), 0.5% Triton X-100, 1 microgram/milliliter (“μg/mL”) lysozyme, 5 mM Magnesium Chloride (MgCl2), 1 μg/mL DnaseI, 5 mM β-Mercaptoethanol (βME), Protease inhibitor—Ethylenediamine Tetraacetic acid (EDTA) free (Roche), homogenized and incubated for 20 minutes (min) at 4° C. The homogenate was sonicated and clarified by ultra-centrifugation at 235000 g for 1 h at 4° C. Imidazole was added to the supernatant to a final concentration of 15 mM and the pH adjusted to 8.0. The crude protein extract was loaded on a Nickel—Nitrilotriacetic acid (Ni-NTA) column pre-equilibrated with buffer B (25 mM HEPES, pH 8.0, 20% glycerol, 500 mM NaCl, 0.5% Triton X-100, 15 mM imidazole, 5 mM βME). The sample was loaded at a flow rate of 1 mL/min. The column was washed with 15 column volumes of buffer C (same as buffer B except with 0.2% Triton X-100). […]

In test [2] the test system is HCV replicon in HUH-7 cells. In words: HCV replicon FRET assay. It is filed as cell-based, Hepatitis C virus (strain 1b). As to conditions: HCV replicon cell assay, HUH-7, read-out: EC50 Range. From the text:
Generation of HCV Replicon
An HCV replicon whole cell system was established as described by Lohmann V, Korner F, Koch J, Herian U, Theilmann L, Bartenschlager R., Science 285(5424):110-3 (1999). This system enabled us to evaluate the effects of our HCV Protease compounds on HCV RNA replication. Briefly, using the HCV strain 1b sequence described in the Lohmann paper (Assession number:AJ238799), an HCV cDNA was synthesized by Operon Technologies, Inc. (Alameda, Calif.), and the full-length replicon was then assembled in plasmid pGem9zf(+) (Promega, Madison, Wis.) using standard molecular biology techniques. The replicon consists of (i) the HCV 5′ UTR fused to the first 12 amino acids of the capsid protein, (ii) the neomycin phosphotransferase gene (neo), (iii) the IRES from encephalomyocarditis virus (EMCV), and (iv) HCV NS3 to NS5B genes and the HCV 3′ UTR. Plasmid DNAs were linearized with ScaI and RNA transcripts were synthesized in vitro using the T7 MegaScript transcription kit (Ambion, Austin, Tex.) according to manufacturer's directions. In vitro transcripts of the cDNA were transfected into the human hepatoma cell line, HUH-7. […] Resulting cell lines were characterized for positive and negative strand RNA production and protein production over time.
The HCV replicon FRET assay was developed to monitor the inhibitory effects of compounds described in the disclosure on HCV viral replication. HUH-7 cells, constitutively expressing the HCV replicon, were grown in Dulbecco's Modified Eagle Media (DMEM) (Gibco-BRL) containing 10% Fetal calf serum (FCS) (Sigma) and 1 mg/mL G418 (Gibco-BRL). Cells were seeded the night before (1.5×10^4 cells/well) in 96-well tissue-culture sterile plates. Compound and no compound controls were prepared in DMEM containing 4% FCS, 1:100 Penicillin/Streptomysin (Gibco-BRL), 1:100 L-glutamine and 5% DMSO in the dilution plate (0.5% DMSO final concentration in the assay). Compound/DMSO mixes were added to the cells and incubated for 4 days at 37° C. After 4 days, cells were first assessed for cytotoxicity using alamar Blue (Trek Diagnotstic Systems) for a CC50 reading. The toxicity of compound (CC50) was determined by adding 1/10th volume of alamar Blue to the media incubating the cells. After 4 h, the fluorescence signal from each well was read, with an excitation wavelength at 530 nm and an emission wavelength of 580 nm, using the Cytofluor Series 4000 (Perspective Biosystems). Plates were then rinsed thoroughly with Phosphate-Buffered Saline (PBS) (3 times 150 μl).
(In general: A replicon is a self-replicating genome or part of one, used to study replication in cells.)

Setting [3] is: NS3/4A BMS strain, enzyme assay; read-out: IC 50 Range.

As a reminder, the EC50 is the concentration at which the effect is half-maximal. For `C=CC1CC1(NC(=O)[C@@H]1C[C@@H](NC(=O)c2ccsc2)CN1C(=O)[C@@H](NC(=O)CC1CC1)C(C)(C)C)C(=O)NS(=O)(=O)C1CC1` (some centres unmarked) [Compound 12], the IC50 in test [1] (setting [3]) lay within 150 to 15000 nM. Also, the EC50 in test [2] (Hepatitis C virus) was more than 15000 nM.
The like results for `C=CC1CC1(NC(=O)[C@@H]1C[C@@H](NC(=O)c2cc(Cl)nc3ccccc23)CN1C(=O)[C@@H](NC(=O)CC1CC1)C(C)(C)C)C(=O)NS(=O)(=O)C1CC1` (some centres unmarked) [Compound 13] were, in that order, 150 to 15000 nM and more than 15000 nM.
On the same counts, the results for `C=CC1CC1(NC(=O)[C@@H]1C[C@@H](NC(=O)c2ccncc2)CN1C(=O)[C@@H](NC(=O)CC1CC1)C(C)(C)C)C(=O)NS(=O)(=O)C1CC1` (some centres unmarked) [Compound 14] are 150 to 15000 nM and more than 15000 nM.
On the same counts, the results for `C=CC1CC1(NC(=O)[C@@H]1C[C@@H](NC(=O)c2cccc3ccccc23)CN1C(=O)[C@@H](NC(=O)CC1CC1)C(C)(C)C)C(=O)NS(=O)(=O)C1CC1` (some centres unmarked) [Compound 16] are less than 150 nM and more than 15000 nM.
Consider `C=CC1CC1(NC(=O)[C@@H]1C[C@@H](NC(=O)c2c(C)nc3ccccn23)CN1C(=O)[C@@H](NC(=O)CC1CC1)C(C)(C)C)C(=O)NS(=O)(=O)C1CC1` (some centres unmarked) [Compound 17], for which, in test [1] (setting [3]), the IC50 is less than 150 nM. Further, the concentration for a half-maximal effect (EC50) in test [2] (Hepatitis C virus) was more than 15000 nM.
In the case of `C=CC1CC1(NC(=O)[C@@H]1C[C@@H](NC(=O)c2c(C)nc3ccccn23)CN1C(=O)[C@@H](NC(=O)CC1CC1)C(C)(C)C)C(=O)NS(=O)(=O)C1CC1` (some centres unmarked) [Compound 18], the IC50 in test [1] (setting [3]) lay in the range of 150 to 15000 nM. The EC50 in test [2] is more than 15000 nM.
`C=CC1CC1(NC(=O)[C@@H]1C[C@@H](NC(=O)c2cn(C)c3ccccc23)CN1C(=O)[C@@H](NC(=O)CC1CC1)C(C)(C)C)C(=O)NS(=O)(=O)C1CC1` (some centres unmarked) [Compound 19]: in test [1] (read-out: IC 50 Range; NS3/4A BMS strain, enzyme assay), the IC50 was less than 150 nM. The EC50 in test [2] (Hepatitis C virus) was more than 15000 nM.
In the case of `C=CC1CC1(NC(=O)[C@@H]1C[C@@H](NC(=O)c2c(C)nc3sccn23)CN1C(=O)[C@@H](NC(=O)CC1CC1)C(C)(C)C)C(=O)NS(=O)(=O)C1CC1` (some centres unmarked) [Compound 20], in test [1] (setting [3]), the IC50 is less than 150 nM. Further, the half-maximal effective concentration (EC50) in test [2] (Hepatitis C virus) was more than 15000 nM.
The like results for `C=CC1CC1(NC(=O)[C@@H]1C[C@@H](NC(=O)c2c(-c3ccc(Cl)cc3)cn3ccccc23)CN1C(=O)[C@@H](NC(=O)CC1CC1)C(C)(C)C)C(=O)NS(=O)(=O)C1CC1` (some centres unmarked) [Compound 21] were, in that order, less than 150 nM and 150 to 15000 nM.
On the same counts, the results for `C=CC1CC1(NC(=O)[C@@H]1C[C@@H](NC(=O)c2cnc3c(c(C)nn3C)c2Cl)CN1C(=O)[C@@H](NC(=O)CC1CC1)C(C)(C)C)C(=O)NS(=O)(=O)C1CC1` (some centres unmarked) [Compound 22] are less than 150 nM and more than 15000 nM.
On to `C=CC1CC1(NC(=O)[C@@H]1C[C@@H](NC(=O)c2nccc3ccccc23)CN1C(=O)[C@@H](NC(=O)CC1CC1)C(C)(C)C)C(=O)NS(=O)(=O)C1CC1` (some centres unmarked) [Compound 24], for which, in test [1] (setting [3]), the IC50 is 150 to 15000 nM. The EC50 in test [2] (Hepatitis C virus) was more than 15000 nM.
Consider `C=CC1CC1(NC(=O)[C@@H]1C[C@@H](NC(=O)c2ccc3ccccc3n2)CN1C(=O)[C@@H](NC(=O)CC1CC1)C(C)(C)C)C(=O)NS(=O)(=O)C1CC1` (some centres unmarked) [Compound 25], for which, in test [1] (setting [3]), the IC50 is less than 150 nM. Further, the EC50 in test [2] (Hepatitis C virus) lay within 150 to 15000 nM.
On the same counts, the results for `C=CC1CC1(NC(=O)[C@@H]1C[C@@H](NC(=O)c2cc3ccccc3n2C)CN1C(=O)[C@@H](NC(=O)CC1CC1)C(C)(C)C)C(=O)NS(=O)(=O)C1CC1` (some centres unmarked) [Compound 26] are less than 150 nM and 150 to 15000 nM.
Regarding `C=CC1CC1(NC(=O)[C@@H]1C[C@@H](NC(=O)c2cc3ccccc3o2)CN1C(=O)[C@@H](NC(=O)CC1CC1)C(C)(C)C)C(=O)NS(=O)(=O)C1CC1` (some centres unmarked) [Compound 27], the IC50 in test [1] (setting [3]) was less than 150 nM. In addition, the concentration giving a half-maximal response (EC50) in test [2] (Hepatitis C virus) lay within 150 to 15000 nM.
As for `C=CC1CC1(NC(=O)[C@@H]1C[C@@H](NC(=O)c2cc3ccccc3cn2)CN1C(=O)[C@@H](NC(=O)CC1CC1)C(C)(C)C)C(=O)NS(=O)(=O)C1CC1` (some centres unmarked) [Compound 28], the IC50 in test [1] (setting [3]) is less than 150 nM. In test [2] (Hepatitis C virus), the EC50 was 150 to 15000 nM.
`C=CC1CC1(NC(=O)[C@@H]1C[C@@H](NC(=O)c2sc3ccccc3c2Cl)CN1C(=O)[C@@H](NC(=O)CC1CC1)C(C)(C)C)C(=O)NS(=O)(=O)C1CC1` (some centres unmarked) [Compound 29]: in test [1] (setting [3]), the IC50 is less than 150 nM. Further, in test [2] (Hepatitis C virus), the EC50 was 150 to 15000 nM.
In the case of `C=CC1CC1(NC(=O)[C@@H]1C[C@@H](NC(=O)c2cccc3c2OCC3)CN1C(=O)[C@@H](NC(=O)CC1CC1)C(C)(C)C)C(=O)NS(=O)(=O)C1CC1` (some centres unmarked) [Compound 30], the IC50 in test [1] (setting [3]) is 150 to 15000 nM. In addition, in test [2] (Hepatitis C virus), the EC50 is more than 15000 nM.
On the same counts, the results for `C=CC1CC1(NC(=O)[C@@H]1C[C@@H](NC(=O)c2cccc3cccnc23)CN1C(=O)[C@@H](NC(=O)CC1CC1)C(C)(C)C)C(=O)NS(=O)(=O)C1CC1` (some centres unmarked) [Compound 31] are less than 150 nM and 150 to 15000 nM.
The like results for `C=CC1CC1(NC(=O)[C@@H]1C[C@@H](NC(=O)c2cc3ccccc3s2)CN1C(=O)[C@@H](NC(=O)CC1CC1)C(C)(C)C)C(=O)NS(=O)(=O)C1CC1` (some centres unmarked) [Compound 32] were, in that order, less than 150 nM and 150 to 15000 nM.

The record behind these values is patent US7601686B2, “Hepatitis C virus inhibitors” (Bristol-Myers Squibb Company, priority 2005, dated 2009).
